From patent US10766908B2, “Calcium L-lactate frameworks as naturally degradable carriers” (priority 2017, dated 2020)

Test: Slow release of cis-1,3-dichloropropene under air flow, sample weight monitored by thermogravimetric instrument
Format: physicochemical
Conditions: air flow of 1.0 cm^3 min^−1, 25° C.
Procedure: Here we present the use of MOF-1201 for this purpose Fumigant cis-1,3-dichloropropene has been chosen as an example. Static adsorption isotherm of cis-1,3-dichloropropene in MOF-1201 at 25° C. is shown in FIG. 3c, displaying a sharp uptake of 1.4 mmol g^−1 (13 wt %) in low partial pressure range (P/P0=0.1), attributed to adsorption within the micropores. […] In contrast, the cis-1,3-dichloropropene encapsulated in MOF-1201 released in a much slower manner, with 80% of the total (10.5 wt %) released in 100,000 min g^−1, corresponding to 100 times slower compared with liquid cis-1,3-dichloropropene under the same conditions.
Slow release experiments were carried out using the TA Q500 thermal analysis system under constant air flow rate of 1 cm^3 min ^−1.

Cl/C=C\CCl [liquid cis-1,3-dichloropropene, cis-1,3-dichloropropene]
time for 80% of the total weight to be released/evaporated: ≤ 1,000 min g^−1
